{"source": "paper PMC7285002", "about": "“Enhanced Oral Bioavailability of the Pharmacologically Active Lignin Magnolol via Zr-Based Metal Organic Framework Impregnation” (Pharmaceutics, 2020)", "key": {"[1]": {"settings": "low bioavailability of magnolol, stated in the abstract without reference; cited from earlier work"}, "[2]": {"system": "female Sprague Dawley rats", "assay": "Acute oral toxicity (OECD 425, limit test)", "assay_type": "in vivo", "procedure": "Animal toxicity test was done in accordance with the Organization for Economic Cooperation and Development guidelines for testing chemical compounds using the up and down method (OECD procedure 425). Prior to dosing, 2 mL of blood was extracted through tail clipping and was submitted for alanine aminotransferase (ALT) and creatinine level determinations for signs of liver and kidney damages, respectively. […] In cases where the first animal survived, an additional four rats were subjected to the same dose. […] An additional rat was administered with the solvent only to compare the variation in the animal species. Test animals that survived in the 14-day observation were euthanized in a carbon dioxide chamber followed by the harvesting of blood, liver and kidney of all test animals. The blood was once again submitted for ALT and creatinine level determination. The organs were submitted for tissue mounting and histopathological evaluation."}, "[3]": {"assay": "Tissue distribution of unconjugated magnolol", "assay_type": "in vivo", "settings": "Sprague-Dawley (SD), rat, 1 h after oral 50 mg kg^−1, male SD rats", "procedure": "(§1) The determination of the bioavailability of magnolol and its tissue distribution to the brain, liver, and kidney was done according to the method of Ding et al. (2018), Higashi (2015), Lin et al. (2011), and Kotani et al. (2005).\nAfter one hour of administration, the animals were euthanized in a carbon dioxide chamber and their organs (brain, liver, and kidney) were collected. The organs were weighed and homogenized in 10 mL of acetonitrile, and centrifuged at 10,000 rpm for 10 min. The supernatant was dried under reduced pressure.\n(§2) Samples were reconstituted with acetonitrile prior to HPLC analysis. The samples were injected into the HPLC (n = 3). The quantity of magnolol was computed using a standard calibration curve."}, "[4]": {"assay": "Oral bioavailability / pharmacokinetic study (serum magnolol by HPLC)", "assay_type": "in vivo", "settings": "Sprague-Dawley (SD), rat, 100 mg kg^−1, male SD rats; for AUC(0-t): read-out: AUC0–720 (converted); for half-life: male, 100 mg/kg", "procedure": "as §1\nFor the pharmacokinetic study, male SD rats were randomly divided into 4 groups (n = 3). […] Blood samples (approximately 200 to 250 µL) were collected at predetermined time points (15, 30, 60, 120, 180, 240, 480, and 720 min) and allowed to clot and centrifuged at 4000 rpm at 4 °C for 5 min to obtain the serum. The obtained sera were treated with equal amount of acetonitrile and then centrifuged again to obtain the protein-free sera.\nas §2"}}, "note": "Read-outs that look alike come from different tables or passages of the source.", "data": [{"smiles": "C=CCc1ccc(O)c(-c2cc(CC=C)ccc2O)c1", "note": "[Magnolol, 4-Allyl-2-(5-allyl-2-hydroxy-phenyl)phenol]", "values": [{"measurement": "bioavailability", "setting": "[1]", "result": "4–5%"}, {"measurement": "survival after limit dose", "setting": "[2]; 2000 mg kg^−1 oral, female SD rats, 14 days", "result": "All test animals survived"}, {"measurement": "mean serum ALT level, before vs after administration", "setting": "[2]; 2000 mg kg^−1 oral, paired t-test", "result": "no significant difference"}, {"measurement": "median lethal dose (LD50)", "setting": "[2]; oral gavage, female SD rats, 14-day observation, assumed from limit test", "result": "greater than 2000 mg kg^−1"}, {"measurement": "concentration at 1 h", "setting": "[3]; brain, read-out: mean magnolol concentration, Brain", "result": "374 ± 22", "unit": "ng/g"}, {"measurement": "concentration at 1 h", "setting": "[3]; kidney, read-out: mean magnolol concentration, Kidneys", "result": "3740 ± 890", "unit": "ng/g"}, {"measurement": "concentration at 1 h", "setting": "[3]; liver, read-out: mean magnolol concentration, Liver", "result": "790 ± 180", "unit": "ng/g"}, {"measurement": "AUC(0-inf)", "setting": "[4]; IP (intraperitoneal route)", "result": 66900, "unit": "ng·h/mL"}, {"measurement": "Cmax", "setting": "[4]; IP (intraperitoneal route)", "result": "5100 ± 650", "unit": "ng/mL"}, {"measurement": "Tmax", "setting": "[4]; IP (intraperitoneal route)", "result": 64.1, "unit": "min"}, {"measurement": "AUC(0-t)", "setting": "[4]; IP (intraperitoneal route)", "result": 43000, "unit": "ng·h/mL"}, {"measurement": "AUC(0-inf)", "setting": "[4]; PO (oral route)", "result": 15100, "unit": "ng·h/mL"}, {"measurement": "Cmax", "setting": "[4]; PO (oral route)", "result": "2570 ± 260", "unit": "ng/mL"}, {"measurement": "Tmax", "setting": "[4]; PO (oral route)", "result": 55.8, "unit": "min"}, {"measurement": "AUC(0-t)", "setting": "[4]; PO (oral route)", "result": 13700, "unit": "ng·h/mL"}, {"measurement": "half-life", "setting": "[4]; ip, IP (intraperitoneal route), read-out: Abs T1/2 (absorption half-life)", "result": "17.1 ± 3.63", "unit": "min"}, {"measurement": "half-life", "setting": "[4]; ip, IP (intraperitoneal route), read-out: T1/2 (elimination half-life)", "result": "461 ± 37.4", "unit": "min"}, {"measurement": "half-life", "setting": "[4]; po, PO (oral route), read-out: Abs T1/2 (absorption half-life)", "result": "23.3 ± 3.16", "unit": "min"}, {"measurement": "half-life", "setting": "[4]; po, PO (oral route), read-out: T1/2 (elimination half-life)", "result": "100 ± 20.4", "unit": "min"}]}]}
